What was measured:
human hepatitis B virus = assay: Anti-HBV activity in the HBV transgenic mouse model, oral administration; assay type: in vivo, transgenic mice; settings: for Liver HBV DNA Southern blot (pg/μg mean ± sd): p.o.
Protocol: (§1) Compound 6k was evaluated for anti-HBV activity in the transgenic mouse model of HBV infection. Male transgenic mouse infected with HBV, with age ranging from 78 to 108 days were used. Compound 6k was initially evaluated at a single dose of 300 mg/kg, administered daily for 14 days by oral gavage. The compounds were administered in citric acid and adefovir dipivoxil was used as a positive control. A control group which received vehicle was used a negative control. Following the treatment, mice were sacrificed and liver tissue analyzed for HBV DNA using Southern blot analysis. The data was statistically evaluated using Kruskall-Wallis non-parametric ANOVA.
(§2) (a) Male and female transgenic mice (founder 1.3.32) were infected with human hepatitis B virus. Following infection, animals were orally administered Compound 6k, or a placebo of 0.05 M citric acid, pH 2.0 once daily for 14 days. Dosage was 300 mg/kg/d for Compound 6k. The positive control, ADV, was administered at 10 mg/kg/d.
as §2, with “Male” for “(a) Male”, “add,” for “acid,”, “Dosages were 100, 10.5 and 1” for “Dosage was 300”, “6K.” for “6k.”

[1] = Weight change and apparent toxicity in orally treated HBV transgenic mice; assay type: in vivo
Protocol: as §1, §2
Statistical significance is indicated as *P≦0.05, **P≦0.01, ***P≦0.001 compared to placebo vehicle.

HBV-3TC-R4 LMMV = assay type: cell-based; settings: Hepatitis B virus
HCV = assay: Combination studies against HCV in replicon assays; assay type: cell-based; settings: Hepatitis C virus, read-out: EC50 (uM), single drug
EEEH protein = assay: EEEH expression in woodchucks after sublingual administration; assay type: in vivo; settings: following absorption by the sublingual route
Protocol: Compound 5 was administered by sublingual route to woodchucks, at a dose of […] in Transcutol, and blood was drawn periodically for analysis. Test results are provided in Tables 4 and 5 and FIG. 3 and FIG. 4.

macrophages = assay type: cell-based
[2] = 300 mg/kg/d, oral, once daily 14 days

## CO[C@H]1C(OP(=O)(OC[C@H]2O[C@@H](n3cnc4c(N)ncnc43)CC2O)SCOC(=O)OC(C)C)[C@@H](CO)O[C@H]1n1ccc(=O)[nH]c1=O (stereo partly shown) [Compound 6k]
Human hepatitis B virus; 1 mg/kg/d, qd × 14 d
  Liver HBV DNA Southern blot (pg/μg mean ± sd): 16.4 ± 14.7 (6) pg/μg
Human hepatitis B virus; 10 mg/kg/d, qd × 14 d (Table 2)
  Liver HBV DNA Southern blot (pg/μg mean ± sd): 3.4 ± 4.4 (7) pg/μg
Human hepatitis B virus; 100 mg/kg/d, qd × 14 d
  Liver HBV DNA Southern blot (pg/μg mean ± sd): 7.2 ± 8.9 (6) pg/μg
Human hepatitis B virus; 300 mg/kg daily for 14 days by oral gavage
  reduction of liver HBV DNA compared to untreated control: up to 2 log
Human hepatitis B virus; [2]
  Liver HBV RNA (log transcripts ± sd): 10.8 ± 0.4 log transcripts
  QPCR Liver HBV DNA (pg/μg mean ± sd): 13.3 ± 12 pg/µg
Human hepatitis B virus; 300 mg/kg/d, oral, once daily 14 days (Table 1)
  Southern blot Liver HBV DNA (pg/μg mean ± sd): 5.7 ± 3.2 pg/µg
Human hepatitis B virus; 300 mg/kg/d, qd × 14 d (Table 2)
  Liver HBV DNA Southern blot (pg/μg mean ± sd): 4.8 ± 4.4 (2) pg/μg
Human hepatitis B virus; oral
  EC50 when administered orally to a hepatitis B transgenic mouse model: approximately 10 mg/kg
[1]; [2]
  % weight change ± sd: 4.3 ± 1.8%
[1]; high doses employed, oral once daily 14 days
  apparent toxicity: no apparent toxicity
HBV-3TC-R4 LMMV
  EC50: 3.1 µM
  EC90: 9.3 µM
HCV
  EC50: 1.5 to 2.3 µM

## CO[C@H]1C(OP(=O)(S)OC[C@H]2O[C@@H](n3cnc4c(N)ncnc43)CC2O)[C@@H](CO)O[C@H]1n1ccc(=O)[nH]c1=O (stereo partly shown) [Compound 5, 3-dApsU2′-OMe]
EEEH protein
  kinetics of induction of the EEEH protein: very rapid
macrophages
  induction of IL-2: showed induction of IL-2
